Test results published in patent publication US4138589A, “Substituted isophthalamic acids” (Mallinckrodt, Inc., priority 1977, dated 1979).
Values joined by “and” are separate entries in the source; they are usually repeats but may differ in a detail not shown here. Identical values can stand only once. Counter-ions that a name gives are not always drawn. Like-named read-outs stand apart in the source and are kept apart here.

Assays:
rats = assay: Intracisternal Toxicity in Rats; format: in vivo, Sprague Dawley (Carworth) rats; conditions: meglumine salt solution, two day observation
Method: (§1) Satisfactory intravenous urograms are obtained when any of the preparations described in Examples 28-32 is administered to dogs at a dosage of 350 mg. I/kg. Toxicity evaluations by three different techniques were carried out on solutions of the meglumine salts of three 5-acetamido-N-[poly(hydroxyalkyl)alkyl]2,4,6-triiodoisophthalamic acids of the invention. The techniques utilized are outlined below.
Sprague Dawley (Carworth) rats were used. The method used was a variation of the procedure outlined by Melartin et al. (Invest. Rad. 5:13-21, 1970). After dosing, the animals were housed individually, and observed for immediate reactions and periodically for a two day observation period. The LD50 values were calculated according to the method of Litchfield and Wilcoxon, (J. of Pharmac. and Exptl. Therap. 96:99-115, 1949).

mice [1] = assay: Intracerebral Toxicity in Mice; format: in vivo, Swiss Albino mice (Charles River); conditions: meglumine salt solution, seven day observation
Method: as §1
Swiss Albino mice (Charles River) were used. Fixed volumes of solutions of various concentrations of the iodinated compounds were injected intracerebrally via a 27 gauge needle, (1/4 inch length) according to the method of Haley, et al. (Br. J. of Pharmac. 12:12-15, 1957). The animals were observed immediately after injections and daily throughout a seven day observation period. The LD50 values were calculated by the method of Litchfield and Wilcoxon (J. of Pharmac. and Exptl. Therap. 96:99-113, (1949).

[2] = Acute Intravenous Toxicity Studies in Mice; format: in vivo; conditions: mouse, in vivo, iv, meglumine salt solution, 28.27% iodine, lateral tail vein, 1 ml/min, seven day observation; read-out: LD50 I.V. (Mice)
Method: as §1
(§2) Swiss Albino mice (Charles River) were dosed in the lateral tail vein with solutions of the iodinated compound containing 28.27% of iodine, injected at the rate of 1 ml/min. […] The LD50 values were calculated by the method of Litchfield and Wilcoxon (J. of Pharmac. and Exptl. Therap. 96: 99-113, 1949).

mice [3] = assay: Acute Intravenous Toxicity Studies in Mice; format: in vivo; conditions: meglumine salt solution, 28.27% iodine, lateral tail vein, 1 ml/min, seven day observation; 10080 min
Method: as §1, §2

Water solubility = format: physicochemical; conditions: for solubility: water
[4] = prior art; cited from earlier work
[5] = found by V. H. Wallingford; cited from earlier work
[6] = temperature not stated, read-out: solubility

COCC(=O)Nc1c(I)c(C(=O)O)c(I)c(C(=O)NC(CO)(CO)CO)c1I [Example 26(d), 2,4,6-Triiodo-5-methoxyacetamido-N-[tris(hydroxymethyl)methyl]isophthalamic Acid]
LD50 Intracisternal (Rats) (rats): ~150 mg. contained iodine/kg. anima | LD50 Intracerebral (Mice) (mice [1]): ~650 mg. contained iodine/kg. anima

CC(=O)Nc1c(I)c(C(=O)O)c(I)c(C(=O)NC(CO)(CO)CO)c1I [Examples 4(A) and 5, 5-Acetamido-N-[tris(hydroxymethyl)methyl]-2,4,6-triiodoisophthalamic Acid]
LD50 Intracisternal (Rats) (rats): 151 mg. contained iodine/kg. anima | LD50 Intracerebral (Mice) (mice [1]): 700 mg. contained iodine/kg. anima and 638 mg. contained iodine/kg. anima | LD50 at 168 h [2]: 6150 mg/kg | LD50 I.V. (Mice) (mice [3]): 6200 mg. contained iodine/kg. anima

CC(=O)Nc1c(I)c(C(=O)O)c(I)c(C(=O)NCCO)c1I [5-acetamido-2,4,6-triiodo-N-(2-hydroxyethyl)-isophthalamicacid, reference compound]
LD50 Intracisternal (Rats) (rats): 49 mg. contained iodine/kg. anima | LD50 Intracerebral (Mice) (mice [1]): 174 mg. contained iodine/kg. anima | LD50 at 168 h [2]: 5810 mg/kg

CC(=O)Nc1c(I)c(C(=O)[O-])c(I)c(C(=O)NC(COC(C)=O)(COC(C)=O)COC(C)=O)c1I.[Na+]
solubility (Water solubility; sodium salt powder, read-out: solubility in water): ≥ 1000 mg/mL

COCC(=O)Nc1c(I)c(C(=O)[O-])c(I)c(C(=O)NC(CO)(CO)CO)c1I.[Na+]
solubility (Water solubility; sodium salt, 25° C., read-out: solubility in water): ~674 mg/mL

CNC(=O)c1c(I)c(NC(C)=O)c(I)c(C(=O)O)c1I [Iothalamic Acid, 5-acetamido-2,4,6-triiodo-N-methylisophthalamic acid, reference compound]
LD50 Intracisternal (Rats) (rats): 86 mg. contained iodine/kg. anima | LD50 Intracerebral (Mice) (mice [1]): 280 mg. contained iodine/kg. anima | LD50 at 168 h [2]: 5740 mg/kg

CC(=O)Nc1c(I)c(NC(C)=O)c(I)c(C(=O)O)c1I [diatrizoic acid, 3,5-diacetamido-2,4,6-triiodobenzoic acid]
toxicity (in words) [4]: still further reduced toxicity as compared with acetrizoic acid

CC(=O)Nc1c(I)c(C(=O)O)c(I)c(C(=O)NC(CO)(CO)CO)c1I [Example 7, meglumine salt of 5-acetamido-N-[tris(hydroxymethyl)methyl]-2,4,6-triiodoisophthalamic acid]
solubility (Water solubility; [6]): > 600 mg/mL

CC(=O)Nc1c(I)c(C(=O)O)c(I)c(C(=O)NC(C)(CO)CO)c1I [Example 10, 5-Acetamido-N-[2-(1,3-dihydroxy-2-methyl) Propyl]-2,4,6-triiodoisophthalamic Acid]
LD50 Intracisternal (Rats) (rats): 242 mg. contained iodine/kg. anima | LD50 Intracerebral (Mice) (mice [1]): 790 mg. contained iodine/kg. anima | LD50 at 168 h [2]: 4650 mg/kg

CC(CO)(CO)NC(=O)c1c(I)c(N)c(I)c(C(=O)O)c1I [sodium salt of Example 9]
solubility (Water solubility; [6]): ~930 mg/mL

CC(=O)Nc1c(I)c(C(=O)O)c(I)c(C(=O)NC(C)(COC(C)=O)COC(C)=O)c1I [Example 23, Sodium 5-acetamido-N-[(1,3-diacetoxy-2-methyl)-2-propyl]-2,4,6-triiodoisophthalamate]
crystallization of aqueous solution on standing (Water solubility; 102.5% w/v solution, room temperature): No crystallization occurred | solubility (Water solubility; [6]): > 1000 mg/mL

CC(=O)Nc1c(I)c(C(=O)O)c(I)c(C(=O)NC(C)(CO)CO)c1I [Example 11, 5-Acetamido-N-[2-(1,3-dihydroxy-2-methyl)-propyl]-2,4,6-triiodoisophthalamic Acid, Sodium Salt]
solubility (Water solubility; [6]): ~820 mg/mL

Nc1c(I)c(C(=O)O)c(I)c(C(=O)NC(CO)(CO)CO)c1I [sodium salt of 5-amino-N-[tris-(hydroxymethyl)methyl]-2,4,6-triiodoisophthalamic acid]
solubility (Water solubility; sodium salt, temperature not stated, read-out: water solubility): ~800 mg/mL

CC(=O)Nc1c(I)cc(I)c(C(=O)[O-])c1I.[Na+]
toxicity (in words) [4]: unexpectedly low | water solubility (in words) [5]: unexpectedly high
